The target in assay [1] is T1, human cytosolic dThd kinase (Homo sapiens, UniProt P04183).
T1 construct: cellular cytosolic dThd kinase used to determine the Ki values was isolated from KB6B cells; endogenous in cells; host or cells: KB6B cells
Put plainly: dThd kinase assay in vitro. The conditions noted are these: purified enzyme; concentrations as high as 150 μM; 100 μM [14C]dThd. It is filed as biochemical. The text has this: Enzyme purification, enzyme assays, IC50 and Ki determinations. The cellular cytosolic dThd kinase used to determine the Ki values was isolated from KB6B cells. The HSV-1 and HSV-2dThd kinases were extracted from dThd kinase-deficient HeLa BU cells infected with HSV-1 (strain KOS) and HSV-2(strain 333), respectively. All of the dThd kinases were purified using affinity column chromatography procedures described by Lee, L. S. and Cheng, Y.-C. (J. Biol. Chem. 251:2600-2604 (1976)). The dThd kinase assay used was the same as that described by Cheng, Y.-C. & Ostrander, M. (J. Biol. Chem. 251:2605-2610 (1976)). Incubations were conducted at 37° C. for 60 min and the Ki and 50% […] concentration (IC50) values were determined as described by Cheng, Y.-C. and Prusoff, W. H. (Biochem. Pharmacol. 22:3099-3108 (1976)).

In assay [2] the target is T2, host dTMP kinase (Homo sapiens, UniProt P23919).
T2 construct: endogenous in cells; host or cells: HSV-2 (333)-infected HeLa BU cells, extract
T2 sequence (P23919 whole entry): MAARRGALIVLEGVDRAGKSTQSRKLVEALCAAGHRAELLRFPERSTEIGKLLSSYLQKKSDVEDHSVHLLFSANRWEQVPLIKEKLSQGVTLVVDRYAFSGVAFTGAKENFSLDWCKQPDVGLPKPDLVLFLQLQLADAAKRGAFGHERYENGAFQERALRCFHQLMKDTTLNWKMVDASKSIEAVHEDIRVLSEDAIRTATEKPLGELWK
Put plainly: dTMP (thymidylate) kinase assay, crude extracts of HSV-2 (333)-infected HeLa BU cells. The conditions noted are these: 25 μM dTMP substrate, read-out: IC50 of dTMP kinase (reflects host dTMP kinase activity). The class given is biochemical. On the procedure:
The thymidylate kinase and synthase assays were performed according to known procedures (see, Cheng, Y.-C. & Prusoff, W. H. (1974) Anal. Biochem. 60:545-550; Roberts, D. (1966) Biochemistry 5:3546-3548; Dolnick, B. J. & Cheng, Y. C. (1977) J. Biol. Chem. 252:7697-7703). dThd phosphorylase activity was determined by monitoring conversion of [^14 C]dThd to [14 C] thymine using high performance liquid chromatography (HPLC). Briefly, after a 30 min incubation of enzyme extract with radiolabeled dThd at 37° C., the reaction was stopped by addition of 25% trichloroacetic acid. After neutralization and centrifugation, the supernatants were loaded on to an Alltech Lichrosorb RP-18 column, and the column was eluted at a rate of 1 ml/min with 5 mM KH2 PO4 (pH 3.5)--10% methanol. Fractions of 1 ml were collected and radioactivity associated with dThd and thymine (as previously determined by retention times of authentic markers measured by their absorbance at 265 nm) was measured by scintillation counting. For evaluation of whether 5'-Et-dThd could serve substrate for dThd phosphorylase, reactions were carried out as described as above, except that 5'-Et-dThd was used instead of [^14 C]dThd; metabolites were then analyzed by HPLC as described above.

The target of assay [3] is HSV-1 (KOS) dThd kinase in infected HeLa BU cells (Human alphaherpesvirus 1 strain KOS, UniProt P17402). Kind of assay: Intracellular dThd kinase activity ([14C]dThd phosphorylation). It is filed as cell-based, HSV-1 (strain KOS). On the procedure: (§1) Intracellular dThd kinase activity. HeLa S3 or HeLa BU cells (1.5×10^6 /ml) were mock infected or infected with HSV-1 or HSV-2at 3 PFU/cell and incubated at 37° C. for a 1 h adsorption period. The medium was then removed, and the cells were washed with growth medium and resuspended at a cell density of 5×10^5 cells/ml in RPMI 1640 medium supplemented with kanamycin (100 μg/ml) and 5% dialyzed fetal bovine serum. At 9 h post-HSV infection, [14C]dThd (0.16 μCi/ml; 1 μM dThd) and different amounts of 5'-Et-dThd were added to the medium depending on experimental conditions. At the end of the labeling period (1 h), the cells were pelleted by centrifugation, washed with phosphate-buffered-saline (PBS) and resuspended in a small volume of PBS. Aliquots were then pipetted directly onto DE81 discs which were immediately washed in 100% EtOH. The DE81 discs were washed two additional times in 100% EtOH, and then radioactivity associated with the discs was measured by scintillation counting in 5 ml of aqueous counting fluid. In this manner, total intracellular dThd kinase activity was determined from the sum of radioactive acid soluble dThd nucleotides plus the acid insoluble dTMP associated with DNA, both precipitated directly on the DE81 discs.

Assay [4] concerns the target T3, HSV-2 (333) dThd kinase in infected HeLa BU cells (Human herpesvirus 2, UniProt P04407).
T3 construct: kinases were extracted from dThd kinase-deficient HeLa BU cells infected with HSV-1 (strain KOS) and HSV-2(strain 333); endogenous in cells; host or cells: HeLa BU cells (dThd kinase deficient) infected with HSV-2 (strain 333)
Described as above. The class given is cell-based, HSV-2 (strain 333). The protocol: as §1

Assay [5] addresses HSV-1 B3 dThd kinase in infected HeLa BU cells (Human alphaherpesvirus 1 strain SC16, UniProt P06479). The assay is described as above. The class given is cell-based, HSV-1 (strain B3). The conditions noted are these: intracellular [14C]dThd phosphorylation. On the procedure: as §1
Assay [6] concerns HSV-1-infected HeLa S3 cells. Kind of assay: Intracellular dThd phosphorylation. It is filed as cell-based. The conditions noted are these: 25 μM, 9 h post infection, 1 h labeling. On the procedure: as §1
Assay [7] deals with HSV-2-infected HeLa S3 cells. Kind of assay: Intracellular dThd phosphorylation. It is filed as cell-based. The conditions noted are these: 25 μM, 9 h post infection, 1 h labeling. The protocol: as §1
The subject of assay [8] is mock infected HeLa S3 cells. Kind of assay: Intracellular dThd phosphorylation. The class given is cell-based. The conditions noted are these: increasing amounts of 5'-Et-dThd. The protocol: as §1
Assay [9] relates to HSV-1 (strain KOS)-infected HeLa BU cells. Kind of assay: Virus yield assay. It is filed as cell-based. The protocol:
Cell and virus growth inhibition. Cell growth inhibition and the virus yield assay were performed in accordance with the protocol described by Cheng, Y.-C., Grill, S.P., Ruth, J. and Bergstrom, D. E. (Antimicrob. Agents Chemother. 18:957-961 (1980)) with the exceptions that all studies were done using 5% dialyzed fetal bovine serum; the multiplicity of infection was 3 PFU/cell and Vero cells were used instead of CV-1 cells for titration in the virus yield assays.

In assay [10] the target is dThd kinase from HSV-1 (KOS)-infected HeLa BU cells (Human alphaherpesvirus 1 strain KOS, UniProt P17402). Put plainly: Phosphate transfer assay (substrate test). The class given is biochemical, HSV-1 (strain KOS). The conditions noted are these: 2 mM ATP.

The results in this text go back to patent publication US5008252A, “Process for inhibiting herpes simplex virus-specified thymidine kinase” (The University of North Carolina at Chapel Hill, priority 1987, dated 1991).

“And” between values parts separate entries of the source, which are not always exact repeats. Equal entries are not always repeated. “Also recorded” adds a separate entry of the source.

T1 sequence (P04183 whole entry): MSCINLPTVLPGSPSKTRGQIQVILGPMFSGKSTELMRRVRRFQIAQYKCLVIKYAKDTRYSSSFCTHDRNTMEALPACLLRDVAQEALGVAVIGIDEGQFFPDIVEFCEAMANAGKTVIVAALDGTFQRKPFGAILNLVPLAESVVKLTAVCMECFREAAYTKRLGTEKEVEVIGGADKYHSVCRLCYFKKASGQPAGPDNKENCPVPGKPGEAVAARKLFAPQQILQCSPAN

On to 5'-ethynylthymidine [5'-Et-dThd], for which the “effect on human cytosolic dThd kinase” value in assay [1] is on record as “does not exhibit inhibitory activity; also recorded: no effect; also recorded: No demonstrable effects”. Besides, the IC50 was 60 µM in assay [2]; 3 µM in [3] (HSV-1 KOS, intracellular [14C]dThd phosphorylation, HeLa BU cells); 100 µM in assay [4] (HSV-2 333, intracellular [14C]dThd phosphorylation, HeLa BU cells); < 10 µM and 6 µM in assay [5]. Besides, the “dThd phosphorylating activity, % of untreated control” value in assay [3] (25 μM, HSV-1-infected HeLa BU, 9 h post infection, 1 h labeling) was found to be 12.5%; in [4] (25 μM, HSV-2-infected HeLa BU, 9 h post infection, 1 h labeling) it was 80%; in [6] it was 25%; in assay [7], 88%. For the same substance, the “inhibition of dThd kinase-mediated [14C]dThd phosphorylation” value in assay [3] (100 μM, HSV-1-infected HeLa BU cells, 9 h post infection) turned out to be 97%; in assay [4] (100 μM, HSV-2-infected HeLa BU cells, 9 h post infection), 50%. For the same substance, the “accumulation of intracellular phosphorylated [14C]-dThd metabolites” value in assay [8] is recorded as “increased slightly”. In addition, the “effect on the antiviral effect of aphidicolin” value in [9] (0.2 μM aphidicolin with varying concentrations of 5'-Et-dThd) is “significantly enhanced”. Moreover, the “effect on virus yield” value in assay [9] (5'-Et-dThd by itself) is reported as “no effect”. The “% PFU with a 5'-Et-dThd conc. of 2.5 μM” value in assay [9] (Table II, drug (μM as in row; None = 5'-Et-dThd alone) plus 2.5 μM 5'-Et-dThd) was 97%. Moreover, the “% PFU with a 5'-Et-dThd conc. of 25 μM” value in [9] (Table II, drug (μM as in row; None = 5'-Et-dThd alone) plus 25 μM 5'-Et-dThd) amounted to 96%. Also, the “% PFU with a 5'-Et-dThd conc. of 100 μM” value in assay [9] (Table II, drug (μM as in row; None = 5'-Et-dThd alone) plus 100 μM 5'-Et-dThd) is 99%; in assay [9] (Table III, aphidicolin 0.2 μM (None = 5'-Et-dThd alone) plus 100 μM 5'-Et-dThd), 100%. The “%PFU with a 5'-Et-dThd conc. of 5 μM” value in assay [9] (Table III, aphidicolin 0.2 μM (None = 5'-Et-dThd alone) plus 5 μM 5'-Et-dThd) was 100%. Besides, the “%PFU with a 5'-Et-dThd conc. of 20 μM” value in assay [9] (Table III, aphidicolin 0.2 μM (None = 5'-Et-dThd alone) plus 20 μM 5'-Et-dThd) was found to be 100%. Further, in [10], the “substrate for virus dThd kinase (phosphorylation of the analogue)” value was “not phosphorylated; also recorded: did not serve as a substrate”.
